Experimental data as given in BindingDB's records for doi:10.1021/jm960573f (University of Washington, 1997).
“And” between values parts separate entries of the source, which are not always exact repeats. Equal values may be shown once.

Experiment: Binding affinity was determined in a crude membrane preparation from guinea pig brain by displacement of [3H]DPDPE from Opioid receptor delta 1

Compound	Ki
O=C1/C(=C/c2ccccc2)C[C@@]2(O)[C@H]3Cc4ccc(O)c5c4[C@@]2(CCN3CC2CC2)[C@H]1O5 [7-Benzylidenenaltrexone]	6.2 nM
O=C1C(=Cc2cccc3ccccc23)C[C@@]2(O)[C@H]3Cc4ccc(O)c5c4C2(CCN3CC2CC2)[C@H]1O5 [4-cyclopropylmethyl-10,17-dihydroxy-15-[1-(1-naphthyl)-(Z)-methylidene]-(5R,13R,17S)-12-oxa-4-azapentacyclo[9.6.1.01,13.05,17.07,18]octadeca-7(18),8,10-trien-14-one]	4.6 nM and 0.7 nM
O=C1C(=Cc2ccc(-c3ccccc3)cc2)C[C@@]2(O)[C@H]3Cc4ccc(O)c5c4C2(CCN3CC2CC2)[C@H]1O5	75 nM and 47 nM
O=C1C(=Cc2ccc3ccccc3c2)C[C@@]2(O)[C@H]3Cc4ccc(O)c5c4C2(CCN3CC2CC2)[C@H]1O5 [4-cyclopropylmethyl-10,17-dihydroxy-15-[1-(2-naphthyl)-(E)-methylidene]-(5R,13R,17S)-12-oxa-4-azapentacyclo[9.6.1.01,13.05,17.07,18]octadeca-7(18),8,10-trien-14-one]	39 nM
O=C1/C(=C\c2ccccc2)C[C@@]2(O)[C@H]3Cc4ccc(O)c5c4[C@@]2(CCN3CC2CC2)[C@H]1O5	3.7 nM
O=C1C(=Cc2c3ccccc3cc3ccccc23)C[C@@]2(O)[C@H]3Cc4ccc(O)c5c4C2(CCN3CC2CC2)[C@H]1O5	2.4 nM and 17 nM
